Where “and” joins values, the source holds several entries; their conditions need not be identical. Equal entries are not always repeated.
Key:
endometriosis = assay: Example 7 12-week study in endometriosis: efficacy (VAS, B&B, EHP-30); assay type: in vivo, human; conditions: for Physician B&B, dysmenorrhea / Physician B&B, dyspareunia / Physician B&B, non-menstrual pelvic pain / change from baseline in EHP-30, Control and powerlessness / change from baseline in EHP-30, Self-image / change from baseline in EHP-30, emotional well-being / change from baseline in EHP-30, pain / change from baseline in EHP-30, social support: Week 12; for Modified (patient) B&B, deep dyspareunia / Modified (patient) B&B, dysmenorrhea / Modified (patient) B&B, non-menstrual pelvic pain / change from baseline in proportion of days with usage of analgesics: end of treatment
Experimental: Secondary endpoints included VAS score for pelvic pain, dysmenorrhea, and dyspareunia during the treatment period. […] Subjects recorded in the patient diary every day until the end of treatment. […] Designated examinations and evaluations were performed at each visit. As used in the examples, the VAS score was evaluated using a 100 mm scale. For pain intensity, the scale was anchored by “no pain” (score of 0) and “pain as bad as you can imagine” (score of 100). […] The above items were evaluated using a patient diary that was distributed by the sponsor. Subjects filled out the patient diary every day during the treatment period or until early termination. If taking prohibited analgesics, subjects recorded this fact in the patient diary along with the accompanying pain symptoms before use of analgesics. As used in the examples, pain during menstruation and pelvic pain unrelated to menstruation were evaluated using scores on the M-B&B and B&B. The M-B&B scores were recorded by subjects on the patient diary supplied by the sponsor. Subjects filled out the patient diary every day during the treatment period or until early termination. If taking prohibited analgesics, subjects recorded this fact in the patient diary along with the accompanying pain symptoms before use of analgesics. The investigator or subinvestigator assessed each patient's pain through interviews and filled out a B&B once a month. The items that were assessed are shown below. The M-B&B score included: dysmenorrhea (severe, moderate, mild, no pain, or no menstruation); pelvic pain (severe, moderate, mild, or no pain); deep dyspareunia (severe, moderate, mild, no pain, or no intercourse). The B&B score included: dysmenorrhea (severe, moderate, mild, none, or not applicable); dyspareunia (severe, moderate, mild, none, or not applicable); pelvic pain (severe, moderate, mild, or none); pelvic tenderness (severe, moderate, mild, or none); and induration (severe, moderate, mild, or none). As used in the examples, the EHP-30 score was obtained by subjects assessing and recording their own QOL using the EHP-30 questionnaire.

clinical = conditions: for half-life: human, in vivo
Description: (See J. W. Ng, et al., “Dose-Dependent Suppression of Gonadotropins and Ovarian Hormones by Elagolix in Healthy Premenopausal Females” (poster, 2016); J. Grundy, et al., […] (2008), Vol 83: Supplement 1, S9).

[1] = Single dose (1 to 80 mg) and 14-day multiple dose (10 to 40 mg) PK of the Compound 1 formulation; assay type: in vivo; conditions: for half-life: read-out: mean plasma half-life (T1/2)
Description: However, in a preferred embodiment, the pharmacokinetics of the Compound 1 formulation are not affected by food intake.
The mean plasma AUC after a single dose was higher after fasted dosing than after postprandial or preprandial dosing. The mean plasma AUC and mean Cmax with multiple dosing were higher with preprandial than with postprandial dosing.

FIG. 7D = assay: FIG. 7D
Description: Table printed on a drawing sheet, FIG. 7D
(§1) The patent's description of the figure: FIGS. 7A-F are tables of plasma PK parameters for Cohorts 8 to 10 in accordance with Example 4.

FIG. 7E = assay: FIG. 7E
Description: Table printed on a drawing sheet, FIG. 7E
as §1
First reader's note: Each column is a dose group; according to the description these are plasma PK parameters on Day 14 (Cohorts 8 to 10).

FIG. 12 = assay: FIG. 12
Description: Table printed on a drawing sheet, FIG. 12
The patent's description of the figure: FIG. 12 is a table of urine PK parameters for Cohorts 8 to 10 on Day 1 of the treatment period in accordance with Example 4.
First reader's note: Per the description these are urine PK parameters for Cohorts 8 to 10 on Day 1; each column is one dose group.

[2] = human, plasma, po, Day 14 of multiple doses of 10 to 40 mg

CONC(=O)Nc1ccc(-c2sc3c(c2CN(C)C)c(=O)n(-c2ccc(OC)nn2)c(=O)n3Cc2c(F)cccc2F)cc1 [Compound 1, N-(4-(1-(2,6-difluorobenzyl)-5-((dimethylamino)methyl)-3-(6-methoxy-3-pyridazinyl)-2,4-dioxo-1,2,3,4-tetrahydrothieno[2,3-d]pyrimidin-6-yl)phenyl)-N′-methoxyurea]
Physician B&B, dysmenorrhea (endometriosis; 10 mg): −1.0
Physician B&B, dyspareunia (endometriosis; 10 mg): −0.2
Physician B&B, non-menstrual pelvic pain (endometriosis; 10 mg): −0.6
change from baseline in EHP-30, Control and powerlessness (endometriosis; 10 mg): −13.7
change from baseline in EHP-30, Self-image (endometriosis; 10 mg): −5.5
change from baseline in EHP-30, emotional well-being (endometriosis; 10 mg): −8.3
change from baseline in EHP-30, pain (endometriosis; 10 mg): −18.3
change from baseline in EHP-30, social support (endometriosis; 10 mg): −6.6
change from baseline in mean VAS score, pelvic pain (endometriosis; 10 mg, end of 12-wk treatment period): −6.168±9.1411 mm
Modified (patient) B&B, deep dyspareunia (endometriosis; 10 mg): −0.08
Modified (patient) B&B, dysmenorrhea (endometriosis; 10 mg): −0.48
Modified (patient) B&B, non-menstrual pelvic pain (endometriosis; 10 mg): −0.21
change from baseline in proportion of days with usage of analgesics (endometriosis; 10 mg): −6.6
Physician B&B, dysmenorrhea (endometriosis; 20 mg): −1.5
Physician B&B, dyspareunia (endometriosis; 20 mg): −0.2
Physician B&B, non-menstrual pelvic pain (endometriosis; 20 mg): −0.8
change from baseline in EHP-30, Control and powerlessness (endometriosis; 20 mg): −14.6
change from baseline in EHP-30, Self-image (endometriosis; 20 mg): −6.3
change from baseline in EHP-30, emotional well-being (endometriosis; 20 mg): −8.9
change from baseline in EHP-30, pain (endometriosis; 20 mg): −17.8
change from baseline in EHP-30, social support (endometriosis; 20 mg): −8.4
change from baseline in mean VAS score, pelvic pain (endometriosis; 20 mg, end of 12-wk treatment period): −8.070±13.3707 mm
Modified (patient) B&B, deep dyspareunia (endometriosis; 20 mg): −0.10
Modified (patient) B&B, dysmenorrhea (endometriosis; 20 mg): −0.76
Modified (patient) B&B, non-menstrual pelvic pain (endometriosis; 20 mg): −0.22
change from baseline in proportion of days with usage of analgesics (endometriosis; 20 mg): −6.3
change from baseline in mean VAS score, pelvic pain (endometriosis; 40 mg, Day 1-28): −3.761 mm
change from baseline in mean VAS score, pelvic pain (endometriosis; 40 mg, Day 29-56): −8.960±9.8226 mm
change from baseline in mean VAS score, pelvic pain (endometriosis; 40 mg, Day 57-84): −10.464±11.0995 mm
Physician B&B, dysmenorrhea (endometriosis; 40 mg): −2.0
Physician B&B, dyspareunia (endometriosis; 40 mg): −0.1
Physician B&B, non-menstrual pelvic pain (endometriosis; 40 mg): −0.9
change from baseline in EHP-30, Control and powerlessness (endometriosis; 40 mg): −17.2
change from baseline in EHP-30, Self-image (endometriosis; 40 mg): −8.4
change from baseline in EHP-30, emotional well-being (endometriosis; 40 mg): −10.4
change from baseline in EHP-30, pain (endometriosis; 40 mg): −25.3
change from baseline in EHP-30, social support (endometriosis; 40 mg): −6.8
change from baseline in mean VAS score, pelvic pain (endometriosis; 40 mg, end of 12-wk treatment period): −10.418±11.0171 mm
Modified (patient) B&B, deep dyspareunia (endometriosis; 40 mg): −0.07
Modified (patient) B&B, dysmenorrhea (endometriosis; 40 mg): −1.16
Modified (patient) B&B, non-menstrual pelvic pain (endometriosis; 40 mg): −0.33
change from baseline in proportion of days with usage of analgesics (endometriosis; 40 mg): −10.1
E2 in the majority of subjects (clinical; 40 mg per day): below 10 pg/mL
half-life (clinical; T1/2, highest found): ~61 h
half-life (clinical; half-life (T1/2)): 37 to 42 h
half-life ([1]; human, plasma, po, single dose 1 to 80 mg): 7.1 to 19.8 h
Tmax [1, 2]: 1 to 1.5 h
half-life [1, 2]: 19.2 to 24.6 h
day by which steady state was reached ([1]; multiple dosing): ≤ 7 days
Tmax (hr) | Median (FIG. 7D): 0.980 h and 1.480 h and 1.000 h
CL/F (L/hr) | Mean (FIG. 7E): 569.7 L/h and 436.3 L/h and 373.4 L/h
Vz/F (L) | Mean (FIG. 7E): 5041.8 L and 3618.3 L and 3086.5 L
CLr (L/hr) | Mean (FIG. 12): 7.1595 L/h and 6.7303 L/h and 7.7148 L/h
Fe (%) | Mean (FIG. 12): 0.639% and 0.938% and 1.209%
